Results reported in US8278345B2, “Inhibitors of glutaminyl cyclase” (Probiodrug AG, priority 2006, dated 2012).

These compounds were tested against hQC (Homo sapiens, UniProt Q16769) (assay: Inhibitor assay for glutaminyl cyclase activity (fluorometric, H-Gln-βNA / H-Gln-AMC)). Conditions: compound from preparative synthesis, purified; read-out: IC50 hQC.
Assay type: biochemical
In short: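 Coupled fluorometric assay at 30 °C with pyroglutamyl aminopeptidase, in Tris/HCl pH 8.0 with EDTA, substrate H-Gln-βNA (0.2 mM; ex/em 320/410 nm) or H-Gln-AMC (ex/em 380/460 nm), initiated by QC. Screening: 4 mM inhibitor, substrate at 1 KM; Ki from progress curves fitted to competitive inhibition.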

hQC, sequence (Q16769 29-361): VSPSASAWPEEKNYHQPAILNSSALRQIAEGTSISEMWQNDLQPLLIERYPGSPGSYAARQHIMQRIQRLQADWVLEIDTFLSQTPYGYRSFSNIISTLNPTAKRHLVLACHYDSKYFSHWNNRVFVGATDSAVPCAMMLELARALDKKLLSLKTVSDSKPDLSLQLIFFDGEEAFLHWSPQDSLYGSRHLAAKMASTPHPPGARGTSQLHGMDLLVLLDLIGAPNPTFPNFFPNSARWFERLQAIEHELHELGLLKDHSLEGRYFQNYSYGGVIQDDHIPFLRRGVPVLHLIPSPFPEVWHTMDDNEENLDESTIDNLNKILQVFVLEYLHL

IC50 [µM] | SMILES
0.37 | O=C1C(O)=C(c2ccc(O)cc2)C(c2ccc3[nH]ccc3c2)N1CCCn1ccnc1 (centres unmarked) [Compound 155, 3-Hydroxy-4-(4-hydroxy-phenyl)-1-(3-imidazol-1-yl-propyl)-5-(1H-indol-5-yl)-1,5-dihydro-pyrrol-2-one]
0.804 | O=C1C(O)=C(c2c[nH]c3ccccc23)C(C2CCC=CO2)N1CCCn1ccnc1 (centres unmarked) [Compound 128, 5-(3,4-Dihydro-2H-pyran-2-yl)-3-hydroxy-1-(3-imidazol-1-yl-propyl)-4-(1H-indol-3-yl)-1,5-dihydro-pyrrol-2-one]
0.434 | O=C1C(O)=C(c2c[nH]c3ccccc23)C(c2ccccc2)N1CCCn1ccnc1 (centres unmarked) [Compound 127, 3-Hydroxy-1-(3-imidazol-1-yl-propyl)-4-(1H-indol-3-yl)-5-phenyl-1,5-dihydro-pyrrol-2-one]
0.562 | Cc1ccc(C2C(c3c[nH]c4ccccc34)=C(O)C(=O)N2CCCn2ccnc2)cc1C (centres unmarked) [Compound 123, 5-(3,4-Dimethyl-phenyl)-3-hydroxy-1-(3-imidazol-1-yl-propyl)-4-(1H-indol-3-yl)-1,5-dihydro-pyrrol-2-one]

Same assay, conditions: read-out: IC50

IC50 [µM] | SMILES
0.04 | O=C1C(O)=C(c2ccc(O)cc2)C(c2ccc3[nH]ccc3c2)N1CCCn1ccnc1 (centres unmarked) [Compound 155, 3-Hydroxy-4-(4-hydroxy-phenyl)-1-(3-imidazol-1-yl-propyl)-5-(1H-indol-5-yl)-1,5-dihydro-pyrrol-2-one]
0.4 | CC1=C(O)C(=O)N(CCCn2ccnc2)C1c1ccc(C)c(C)c1 (centres unmarked) [Compound 29, 5-(3,4-Dimethyl-phenyl)-3-hydroxy-1-(3-imidazol-1-yl-propyl)-4-methyl-1,5-dihydro-pyrrol-2-one]
1.3 | CCC1=C(O)C(=O)N(CCCn2ccnc2)C1c1ccccc1F (centres unmarked) [Compound 250, 4-Ethyl-5-(2-fluoro-phenyl)-3-hydroxy-1-(3-imidazol-1-yl-propyl)-1,5-dihydro-pyrrol-2-one]
0.04 | O=C1C(O)=C(c2c[nH]c3ccccc23)C(C2CCC=CO2)N1CCCn1ccnc1 (centres unmarked) [Compound 128, 5-(3,4-Dihydro-2H-pyran-2-yl)-3-hydroxy-1-(3-imidazol-1-yl-propyl)-4-(1H-indol-3-yl)-1,5-dihydro-pyrrol-2-one]
0.04 | O=C1C(O)=C(c2c[nH]c3ccccc23)C(c2ccccc2)N1CCCn1ccnc1 (centres unmarked) [Compound 127, 3-Hydroxy-1-(3-imidazol-1-yl-propyl)-4-(1H-indol-3-yl)-5-phenyl-1,5-dihydro-pyrrol-2-one]
0.04 | O=C1C(O)=C(c2ccccc2)C(CO)N1CCCn1ccnc1 (centres unmarked) [Compound 104, 3-Hydroxy-5-hydroxymethyl-1-(3-imidazol-1-yl-propyl)-4-phenyl-1,5-dihydro-pyrrol-2-one]
0.04 | Cc1ccc(C2C(c3c[nH]c4ccccc34)=C(O)C(=O)N2CCCn2ccnc2)cc1C (centres unmarked) [Compound 123, 5-(3,4-Dimethyl-phenyl)-3-hydroxy-1-(3-imidazol-1-yl-propyl)-4-(1H-indol-3-yl)-1,5-dihydro-pyrrol-2-one]
1.3 | CC1=C(O)C(=O)N(CCCn2ccnc2)C1c1ccc(O)cc1 (centres unmarked) [Compound 52, 3-Hydroxy-5-(4-hydroxy-phenyl)-1-(3-imidazol-1-yl-propyl)-4-methyl-1,5-dihydro-pyrrol-2-one]
7.6 | O=C1C(O)=C(c2ccc(O)cc2)C(c2ccncc2)N1CCCn1ccnc1 (centres unmarked) [Compound 172, 3-Hydroxy-4-(4-hydroxy-phenyl)-1-(3-imidazol-1-yl-propyl)-5-pyridin-4-yl-1,5-dihydro-pyrrol-2-one]
0.04 | COc1ccc(C2C(c3c[nH]c4ccccc34)=C(O)C(=O)N2CCCn2ccnc2)cc1 (centres unmarked) [Compound 121, 3-Hydroxy-1-(3-imidazol-1-yl-propyl)-4-(1H-indol-3-yl)-5-(4-methoxy-phenyl)-1,5-dihydro-pyrrol-2-one]
2.2 | Cc1ccc(C2C(c3ccccc3)=C(O)C(=O)N2CCCn2ccnc2)o1 (centres unmarked) [Compound 84, 3-Hydroxy-1-(3-imidazol-1-yl-propyl)-5-(5-methyl-furan-2-yl)-4-phenyl-1,5-dihydro-pyrrol-2-one]
1.3 | O=C1C(O)=C(c2c[nH]c3ccccc23)C(C(F)(F)F)N1CCCn1ccnc1 (centres unmarked) [Compound 131, 3-Hydroxy-1-(3-imidazol-1-yl-propyl)-4-(1H-indol-3-yl)-5-trifluoromethyl-1,5-dihydro-pyrrol-2-one]
0.04 | Cc1ccc(C2C(c3ccc(O)cc3)=C(O)C(=O)N2CCCn2ccnc2)o1 (centres unmarked) [Compound 154, 3-Hydroxy-4-(4-hydroxy-phenyl)-1-(3-imidazol-1-yl-propyl)-5-(5-methyl-furan-2-yl)-1,5-dihydro-pyrrol-2-one]

More lines, now with the values behind:

SMILES | IC50 [µM]
O=C(O)CCC1C(C(=O)C2CCCCC2)=C(O)C(=O)N1c1ccc2[nH]cnc2c1 (centres unmarked) [Compound 361, 3-[1-(1H-Benzoimidazol-5-yl)-3-cyclohexanecarbonyl-4-hydroxy-5-oxo-2,5-dihydro-1H-pyrrol-2-yl]-propionic acid] | 8.95
CCCC(=O)C1=C(O)C(=O)N(c2ccc3[nH]cnc3c2)C1c1ccco1 (centres unmarked) [Compound 353, 1-(1H-Benzoimidazol-5-yl)-4-butyryl-5-furan-2-yl-3-hydroxy-1,5-dihydro-pyrrol-2-one] | 2.74
CCCCCC1C(F)=C(O)C(=O)N1CCCn1ccnc1 (centres unmarked) [Compound 2, 4-Fluoro-3-hydroxy-1-(3-imidazol-1-yl-propyl)-5-pentyl-1,5-dihydro-pyrrol-2-one] | 4.9
CCCCCC1=C(O)C(=O)N(CCCn2ccnc2)C1CCCC (centres unmarked) [Compound 214, 5-Butyl-3-hydroxy-1-(3-imidazol-1-yl-propyl)-4-pentyl-1,5-dihydro-pyrrol-2-one] | 0.4
Cc1cc(C2C(c3cccc(O)c3)=C(O)C(=O)N2c2ccc3[nH]cnc3c2)oc1C (centres unmarked) [Compound 307, 1-(1H-Benzoimidazol-5-yl)-5-(4,5-dimethyl-furan-2-yl)-3-hydroxy-4-(3-hydroxy-phenyl)-1,5-dihydro-pyrrol-2-one] | 2.83
CC1=C(O)C(=O)N(CCCn2ccnc2)C1/C=C/C(C)C (centres unmarked) [Compound 24, 3-Hydroxy-1-(3-imidazol-1-yl-propyl)-4-methyl-5-(3-methyl-but-1-enyl)-1,5-dihydro-pyrrol-2-one] | 5.8
CCCC(=O)C1=C(O)C(=O)N(c2ccc3[nH]cnc3c2)C1 [Compound 362, 1-(1H-Benzoimidazol-5-yl)-4-butyryl-3-hydroxy-1,5-dihydro-pyrrol-2-one] | 4.72
O=C(C1=C(O)C(=O)N(c2ccc3[nH]cnc3c2)C1c1ccc(Cl)c(C(F)(F)F)c1)c1cc2ccccc2s1 (centres unmarked) [Compound 257, 4-(Benzo[b]thiophene-2-carbonyl)-1-(1H-benzoimidazol-5-yl)-5-(4-chloro-3-trifluoromethyl-phenyl)-3-hydroxy-1,5-dihydro-pyrrol-2-one] | 3.37
CSCC1=C(O)C(=O)N(c2ccc3[nH]cnc3c2)C1c1cccc(F)c1 (centres unmarked) [Compound 299, 1-(1H-Benzoimidazol-5-yl)-5-(3-fluoro-phenyl)-3-hydroxy-4-methylsulfanylmethyl-1,5-dihydro-pyrrol-2-one] | 5.26
CCCCCC1C(c2cccc(O)c2)=C(O)C(=O)N1CCCn1ccnc1 (centres unmarked) [Compound 16, 3-Hydroxy-4-(3-hydroxy-phenyl)-1-(3-imidazol-1-yl-propyl)-5-pentyl-1,5-dihydro-pyrrol-2-one] | 0.4
Cc1[nH]c2ccccc2c1C1C(C(=O)C2CC2)=C(O)C(=O)N1c1ccc2[nH]cnc2c1 (centres unmarked) [Compound 298, 1-(1H-Benzoimidazol-5-yl)-4-cyclopropanecarbonyl-3-hydroxy-5-(2-methyl-1H-indol-3-yl)-1,5-dihydro-pyrrol-2-one] | 7.87
CCC1=C(O)C(=O)N(CCCn2ccnc2)C1c1cccs1 (centres unmarked) [Compound 245, 4-Ethyl-3-hydroxy-1-(3-imidazol-1-yl-propyl)-5-thiophen-2-yl-1,5-dihydro-pyrrol-2-one] | 0.04
CC(=O)C1=C(O)C(=O)N(c2ccc3[nH]cnc3c2)C1c1ccc(N2CCCC2)cc1 (centres unmarked) [Compound 345, 4-Acetyl-1-(1H-benzoimidazol-5-yl)-3-hydroxy-5-(4-pyrrolidin-1-yl-phenyl)-1,5-dihydro-pyrrol-2-one] | 1.57
CC1=C(O)C(=O)N(CCCn2ccnc2)C1C1CC1 (centres unmarked) [Compound 46, 5-Cyclopropyl-3-hydroxy-1-(3-imidazol-1-yl-propyl)-4-methyl-1,5-dihydro-pyrrol-2-one] | 2.2
CC(=O)C1=C(O)C(=O)N(c2ccc3[nH]cnc3c2)C1c1ccc(O)c(Br)c1 (centres unmarked) [Compound 333, 4-Acetyl-1-(1H-benzoimidazol-5-yl)-5-(3-bromo-4-hydroxy-phenyl)-3-hydroxy-1,5-dihydro-pyrrol-2-one] | 0.76
CC1C(F)=C(O)C(=O)N1CCCn1ccnc1 (centres unmarked) [Compound 3, 4-Fluoro-3-hydroxy-1-(3-imidazol-1-yl-propyl)-5-methyl-1,5-dihydro-pyrrol-2-one] | 8.5
CC(C)CC(=O)C1=C(O)C(=O)N(c2ccc3[nH]cnc3c2)C1c1c[nH]cn1 (centres unmarked) [Compound 461, 1-(1H-Benzoimidazol-5-yl)-3-hydroxy-5-(1H-imidazol-4-yl)-4-(3-methyl-butyryl)-1,5-dihydro-pyrrol-2-one] | 4
Cc1ccc(C2C(C(=O)CC(C)C)=C(O)C(=O)N2c2ccc3[nH]cnc3c2)o1 (centres unmarked) [Compound 289, 1-(1H-Benzoimidazol-5-yl)-3-hydroxy-4-(3-methyl-butyryl)-5-(5-methyl-furan-2-yl)-1,5-dihydro-pyrrol-2-one] | 0.76
Cc1cccc(C2C(C(=O)C3CC3)=C(O)C(=O)N2c2ccc3[nH]cnc3c2)c1 (centres unmarked) [Compound 260, 1-(1H-Benzoimidazol-5-yl)-4-cyclopropanecarbonyl-3-hydroxy-5-m-tolyl-1,5-dihydro-pyrrol-2-one] | 0.04
O=C1C(O)=C(c2ccccc2)C(c2ccc(Cl)c(C(F)(F)F)c2)N1c1ccc2[nH]cnc2c1 (centres unmarked) [Compound 305, 1-(1H-Benzoimidazol-5-yl)-5-(4-chloro-3-trifluoromethyl-phenyl)-3-hydroxy-4-phenyl-1,5-dihydro-pyrrol-2-one] | 1.75
CCC1=C(O)C(=O)N(c2ccc3[nH]cnc3c2)C1c1cc(C)c(C)o1 (centres unmarked) [Compound 340, 1-(1H-Benzoimidazol-5-yl)-5-(4,5-dimethyl-furan-2-yl)-4-ethyl-3-hydroxy-1,5-dihydro-pyrrol-2-one] | 3.37
CCC1=C(O)C(=O)N(CCCn2ccnc2)C1C (centres unmarked) [Compound 233, 4-Ethyl-3-hydroxy-1-(3-imidazol-1-yl-propyl)-5-methyl-1,5-dihydro-pyrrol-2-one] | 2.2
Cc1cc(C2C(c3ccccc3)=C(O)C(=O)N2c2ccc3[nH]cnc3c2)oc1C (centres unmarked) [Compound 395, 1-(1H-Benzoimidazol-5-yl)-5-(4,5-dimethyl-furan-2-yl)-3-hydroxy-4-phenyl-1,5-dihydro-pyrrol-2-one] | 1.39
CCCCCC1C(C)=C(O)C(=O)N1CCCn1ccnc1 (centres unmarked) [Compound 30, 3-Hydroxy-1-(3-imidazol-1-yl-propyl)-4-methyl-5-pentyl-1,5-dihydro-pyrrol-2-one] | 0.4
